According to ChEMBL document CHEMBL1201862, “PubChem BioAssay data set” (2004):
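Exposure lasted 48 hours, with cells grown in 96-well plates and compounds tested at five concentrations. Abbreviation: GI50, concentration required for 50% inhibition of growth.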 Calls of active or inactive are those of the source. No stated cut-off is given here; in the data, active = GI50 up to about 1.1 µM and inactive = higher.

Experiments:
Assay in all cases: inhibition of tumour cell growth, NCI panel, 48 h
[1] = system: UO-31
[2] = system: MOLT-4
[3] = system: SK-MEL-2
[4] = system: NCI/ADR-RES
[5] = system: Hs-578T
[6] = system: EKVX
[7] = system: HCT-116
[8] = system: NCI-H522
[9] = system: ACHN
[10] = system: RPMI-8226
[11] = system: 786-0
[12] = system: A498
[13] = system: SF-295
[14] = system: HOP-92
[15] = system: SNB-75
[16] = system: LOX IMVI
[17] = system: OVCAR-3
[18] = system: HT-29
[19] = system: U-251
[20] = system: SK-MEL-28
[21] = system: SK-OV-3
[22] = system: M14
[23] = system: MDA-MB-231
[24] = system: A549
[25] = system: SF-539
[26] = system: UACC-62
[27] = system: K562
[28] = system: COLO 205
[29] = system: SNB-19
[30] = system: BT-549
[31] = system: SW-620
[32] = system: OVCAR-4
[33] = system: IGROV-1
[34] = system: KM12
[35] = system: NCI-H23
[36] = system: DU-145
[37] = system: NCI-H460
[38] = system: MDA-MB-435
[39] = system: CAKI-1
[40] = system: HOP-62
[41] = system: NCI-H226
[42] = system: Malme-3M
[43] = system: SN12C
[44] = system: OVCAR-5
[45] = system: RXF 393
[46] = system: SK-MEL-5
[47] = system: SF-268
[48] = system: PC-3
[49] = system: T47D
[50] = system: MDA-N
[51] = system: UACC-257
[52] = system: TK-10
[53] = system: CCRF-CEM
[54] = system: HCT-15
[55] = system: OVCAR-8
[56] = system: SR
[57] = system: HCC 2998
[58] = system: MCF7
[59] = system: HL-60

Question: Which GI50 [1] does the source give for `Cn1c(=O)nc2n(CCO)c(-c3ccccc3)c(-c3ccccc3)nc-2c1=O` here?
Answer: > 100 µM (inactive)

Question: What about the GI50 [2] of the same molecule?
Answer: > 100 µM (inactive)

Question: What about the GI50 [3] of the same molecule?
Answer: > 100 µM (inactive)

Question: And the GI50 [4]?
Answer: > 100 µM (inactive)

Question: What about the GI50 [5] of the same molecule?
Answer: 86.3 µM (inactive)

Question: What about the GI50 [6] of the same molecule?
Answer: > 100 µM (inactive)

Question: What about the GI50 [7] of the same molecule?
Answer: > 100 µM (inactive)

Question: What about the GI50 [8] of the same molecule?
Answer: > 100 µM (inactive)

Question: And the GI50 [9]?
Answer: > 100 µM (inactive)

Question: What about the GI50 [10] of the same molecule?
Answer: > 100 µM (inactive)

Question: What about the GI50 [11] of the same molecule?
Answer: > 100 µM (inactive)

Question: What about the GI50 [12] of the same molecule?
Answer: > 100 µM (inactive)

Question: And the GI50 [13]?
Answer: > 100 µM (inactive)

Question: And the GI50 [14]?
Answer: > 100 µM (inactive)

Question: And the GI50 [15]?
Answer: > 100 µM (inactive)

Question: What about the GI50 [16] of the same molecule?
Answer: > 100 µM (inactive)

Question: And the GI50 [17]?
Answer: > 100 µM (inactive)

Question: What about the GI50 [18] of the same molecule?
Answer: > 100 µM (inactive)

Question: What about the GI50 [19] of the same molecule?
Answer: > 100 µM (inactive)

Question: And the GI50 [20]?
Answer: > 100 µM (inactive)

Question: And the GI50 [21]?
Answer: > 100 µM (inactive)

Question: And the GI50 [22]?
Answer: > 100 µM (inactive)

Question: And the GI50 [23]?
Answer: > 100 µM (inactive)

Question: And the GI50 [24]?
Answer: > 100 µM (inactive)

Question: And the GI50 [25]?
Answer: > 100 µM (inactive)

Question: And the GI50 [26]?
Answer: > 100 µM (inactive)

Question: What about the GI50 [27] of the same molecule?
Answer: > 100 µM (inactive)

Question: And the GI50 [28]?
Answer: > 100 µM (inactive)

Question: And the GI50 [29]?
Answer: > 100 µM (inactive)

Question: What about the GI50 [30] of the same molecule?
Answer: > 100 µM (inactive)

Question: What about the GI50 [31] of the same molecule?
Answer: > 100 µM (inactive)

Question: What about the GI50 [32] of the same molecule?
Answer: > 100 µM (inactive)

Question: What about the GI50 [33] of the same molecule?
Answer: > 100 µM (inactive)

Question: What about the GI50 [34] of the same molecule?
Answer: > 100 µM (inactive)

Question: And the GI50 [35]?
Answer: > 100 µM (inactive)

Question: What about the GI50 [36] of the same molecule?
Answer: > 100 µM (inactive)

Question: And the GI50 [37]?
Answer: 39.1 µM (inactive)

Question: What about the GI50 [38] of the same molecule?
Answer: > 100 µM (inactive)

Question: And the GI50 [39]?
Answer: > 100 µM (inactive)

Question: What about the GI50 [40] of the same molecule?
Answer: > 100 µM (inactive)

Question: What about the GI50 [41] of the same molecule?
Answer: > 100 µM (inactive)

Question: And the GI50 [42]?
Answer: > 100 µM (inactive)

Question: And the GI50 [43]?
Answer: > 100 µM (inactive)

Question: And the GI50 [44]?
Answer: > 100 µM (inactive)

Question: And the GI50 [45]?
Answer: > 100 µM (inactive)

Question: What about the GI50 [46] of the same molecule?
Answer: > 100 µM (inactive)

Question: And the GI50 [47]?
Answer: > 100 µM (inactive)

Question: What about the GI50 [48] of the same molecule?
Answer: > 100 µM (inactive)

Question: And the GI50 [49]?
Answer: > 100 µM (inactive)

Question: What about the GI50 [50] of the same molecule?
Answer: > 100 µM (inactive)

Question: And the GI50 [51]?
Answer: > 100 µM (inactive)

Question: And the GI50 [52]?
Answer: > 100 µM (inactive)

Question: What about the GI50 [53] of the same molecule?
Answer: > 100 µM (inactive)

Question: And the GI50 [54]?
Answer: > 100 µM

Question: And the GI50 [55]?
Answer: > 100 µM (inactive)

Question: What about the GI50 [56] of the same molecule?
Answer: > 100 µM (inactive)

Question: And the GI50 [57]?
Answer: > 100 µM (inactive)

Question: Which results are given for `C(/C=N/N=C1NCCN1)=N\N=C1NCCN1`?
Answer: GI50 [1]: > 100 µM (inactive); GI50 [2]: > 100 µM (inactive); GI50 [3]: > 100 µM (inactive); GI50 [4]: > 100 µM (inactive); GI50 [5]: > 100 µM (inactive); GI50 [6]: > 100 µM (inactive); GI50 [7]: > 100 µM (inactive); GI50 [8]: 72.3 µM (inactive); GI50 [9]: > 100 µM (inactive); GI50 [10]: > 100 µM (inactive); GI50 [11]: > 100 µM (inactive); GI50 [12]: > 100 µM (inactive); GI50 [13]: > 100 µM (inactive); GI50 [14]: > 100 µM (inactive); GI50 [15]: 47.3 µM (inactive); GI50 [58]: > 100 µM (inactive); GI50 [16]: > 100 µM (inactive); GI50 [17]: > 100 µM (inactive); GI50 [18]: > 100 µM (inactive); GI50 [19]: > 100 µM (inactive); GI50 [20]: > 100 µM (inactive); GI50 [21]: > 100 µM (inactive); GI50 [22]: > 100 µM (inactive); GI50 [23]: > 100 µM (inactive); GI50 [24]: > 100 µM (inactive); GI50 [25]: > 100 µM (inactive); GI50 [26]: > 100 µM (inactive); GI50 [27]: 17.8 µM (inactive); GI50 [28]: > 100 µM (inactive); GI50 [29]: > 100 µM (inactive); GI50 [59]: 12.5 µM (inactive); GI50 [30]: > 100 µM (inactive); GI50 [31]: > 100 µM (inactive); GI50 [32]: > 100 µM (inactive); GI50 [33]: > 100 µM (inactive); GI50 [34]: > 100 µM (inactive); GI50 [35]: > 100 µM (inactive); GI50 [37]: > 100 µM (inactive); GI50 [38]: > 100 µM (inactive); GI50 [39]: > 100 µM (inactive); GI50 [40]: > 100 µM (inactive); GI50 [41]: > 100 µM (inactive); GI50 [42]: > 100 µM (inactive); GI50 [44]: > 100 µM (inactive); GI50 [45]: > 100 µM (inactive); GI50 [46]: > 100 µM (inactive); GI50 [47]: > 100 µM (inactive); GI50 [48]: > 100 µM (inactive); GI50 [49]: > 100 µM (inactive); GI50 [50]: > 100 µM (inactive); GI50 [51]: > 100 µM (inactive); GI50 [53]: > 100 µM (inactive); GI50 [54]: > 100 µM; GI50 [55]: > 100 µM (inactive); GI50 [56]: > 100 µM (inactive); GI50 [57]: > 100 µM (inactive)
